Source: PMC8333062, “Chemical tools for epichaperome-mediated interactome dysfunctions of the central nervous system” (Nature Communications, 2021)

Tests used:
Assay in all cases: scanEDGE off-target screen
Format in all cases: binding
[1] = target: T1, 97 kinases (Homo sapiens, UniProt O14757); details: read-out: %Ctrl CHEK1
T1 construct: purchased Ambit Biosciences (scanEDGE / KINOMEscan) scanEDGE 97 kinase panel; host or cells: T7 phage in E. coli BL21-derived host; remaining kinases in HEK-293 cells

[2] = target: T2, 97 kinases (Homo sapiens, UniProt Q96GD4); details: read-out: %Ctrl AURKB
T2 construct: purchased Ambit Biosciences (scanEDGE / KINOMEscan) scanEDGE 97 kinase panel; host or cells: T7 phage in E. coli BL21-derived host; remaining kinases in HEK-293 cells

[3] = target: T3, 97 kinases (Homo sapiens, UniProt Q00526); details: read-out: %Ctrl CDK3
T3 construct: purchased Ambit Biosciences (scanEDGE / KINOMEscan) scanEDGE 97 kinase panel; host or cells: T7 phage in E. coli BL21-derived host; remaining kinases in HEK-293 cells

[4] = target: T4, 97 kinases (Homo sapiens, UniProt Q86V86); details: read-out: %Ctrl PIM3
T4 construct: purchased Ambit Biosciences (scanEDGE / KINOMEscan) scanEDGE 97 kinase panel; host or cells: T7 phage in E. coli BL21-derived host; remaining kinases in HEK-293 cells

[5] = target: T5, 97 kinases (Homo sapiens, UniProt Q9H093); details: read-out: %Ctrl SNARK
T5 construct: purchased Ambit Biosciences (scanEDGE / KINOMEscan) scanEDGE 97 kinase panel; host or cells: T7 phage in E. coli BL21-derived host; remaining kinases in HEK-293 cells

[6] = target: T6, 97 kinases (Homo sapiens, UniProt Q15759); details: read-out: %Ctrl p38-beta
T6 construct: purchased Ambit Biosciences (scanEDGE / KINOMEscan) scanEDGE 97 kinase panel; host or cells: T7 phage in E. coli BL21-derived host; remaining kinases in HEK-293 cells
T6 sequence (Q15759 whole entry): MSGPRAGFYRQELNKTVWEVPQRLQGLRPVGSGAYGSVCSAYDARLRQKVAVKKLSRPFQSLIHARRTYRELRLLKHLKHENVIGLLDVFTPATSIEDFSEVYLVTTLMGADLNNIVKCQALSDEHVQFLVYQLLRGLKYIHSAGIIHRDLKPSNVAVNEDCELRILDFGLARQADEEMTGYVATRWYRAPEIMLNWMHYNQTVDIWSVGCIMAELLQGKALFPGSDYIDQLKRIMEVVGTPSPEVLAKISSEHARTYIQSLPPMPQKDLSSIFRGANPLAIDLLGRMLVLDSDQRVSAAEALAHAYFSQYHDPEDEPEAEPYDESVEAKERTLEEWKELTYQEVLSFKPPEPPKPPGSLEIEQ

[7] = target: T7, 97 kinases (Homo sapiens, UniProt P04626); details: read-out: %Ctrl ERBB2
T7 construct: purchased Ambit Biosciences (scanEDGE / KINOMEscan) scanEDGE 97 kinase panel; host or cells: T7 phage in E. coli BL21-derived host; remaining kinases in HEK-293 cells

[8] = target: T8, 97 kinases (Homo sapiens, UniProt P45984); details: read-out: %Ctrl JNK2
T8 construct: purchased Ambit Biosciences (scanEDGE / KINOMEscan) scanEDGE 97 kinase panel; host or cells: T7 phage in E. coli BL21-derived host; remaining kinases in HEK-293 cells

[9] = target: T9, 97 kinases (Homo sapiens, UniProt P11309); details: read-out: %Ctrl PIM1
T9 construct: purchased Ambit Biosciences (scanEDGE / KINOMEscan) scanEDGE 97 kinase panel; host or cells: T7 phage in E. coli BL21-derived host; remaining kinases in HEK-293 cells

[10] = target: T10, 97 kinases (Homo sapiens, UniProt Q16539); details: read-out: %Ctrl p38-alpha
T10 construct: purchased Ambit Biosciences (scanEDGE / KINOMEscan) scanEDGE 97 kinase panel; host or cells: T7 phage in E. coli BL21-derived host; remaining kinases in HEK-293 cells

[11] = target: T11, 97 kinases (Homo sapiens, UniProt P10721); details: read-out: %Ctrl KIT
T11 construct: purchased Ambit Biosciences (scanEDGE / KINOMEscan) scanEDGE 97 kinase panel; host or cells: T7 phage in E. coli BL21-derived host; remaining kinases in HEK-293 cells

[12] = target: T12, 97 kinases (Homo sapiens, UniProt Q13873); details: read-out: %Ctrl BMPR2
T12 construct: purchased Ambit Biosciences (scanEDGE / KINOMEscan) scanEDGE 97 kinase panel; host or cells: T7 phage in E. coli BL21-derived host; remaining kinases in HEK-293 cells

[13] = target: T13, 97 kinases (Homo sapiens, UniProt Q00536); details: read-out: %Ctrl PCTK1
T13 construct: purchased Ambit Biosciences (scanEDGE / KINOMEscan) scanEDGE 97 kinase panel; host or cells: T7 phage in E. coli BL21-derived host; remaining kinases in HEK-293 cells

[14] = target: T14, 97 kinases (Homo sapiens, UniProt O75116); details: read-out: %Ctrl ROCK2
T14 construct: purchased Ambit Biosciences (scanEDGE / KINOMEscan) scanEDGE 97 kinase panel; host or cells: T7 phage in E. coli BL21-derived host; remaining kinases in HEK-293 cells

[15] = target: T15, 97 kinases (Homo sapiens, UniProt O14965); details: read-out: %Ctrl AURKA
T15 construct: purchased Ambit Biosciences (scanEDGE / KINOMEscan) scanEDGE 97 kinase panel; host or cells: T7 phage in E. coli BL21-derived host; remaining kinases in HEK-293 cells
T15 sequence (O14965 whole entry): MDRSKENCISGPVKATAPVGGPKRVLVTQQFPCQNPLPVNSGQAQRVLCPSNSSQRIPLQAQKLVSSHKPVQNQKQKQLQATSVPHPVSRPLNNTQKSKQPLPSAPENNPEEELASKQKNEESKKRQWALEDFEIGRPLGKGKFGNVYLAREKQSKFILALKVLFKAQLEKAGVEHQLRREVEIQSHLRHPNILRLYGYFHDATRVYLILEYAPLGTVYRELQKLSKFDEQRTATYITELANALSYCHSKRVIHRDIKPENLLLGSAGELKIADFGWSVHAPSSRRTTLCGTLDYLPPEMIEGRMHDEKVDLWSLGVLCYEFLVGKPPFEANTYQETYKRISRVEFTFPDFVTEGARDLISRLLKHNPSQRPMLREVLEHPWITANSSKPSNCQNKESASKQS

[16] = target: T16, 97 kinases (Homo sapiens, UniProt P24941); details: read-out: %Ctrl CDK2
T16 construct: purchased Ambit Biosciences (scanEDGE / KINOMEscan) scanEDGE 97 kinase panel; host or cells: T7 phage in E. coli BL21-derived host; remaining kinases in HEK-293 cells

[17] = target: T17, 97 kinases (Homo sapiens, UniProt Q9BXA7); details: read-out: %Ctrl TSSK1B
T17 construct: purchased Ambit Biosciences (scanEDGE / KINOMEscan) scanEDGE 97 kinase panel; host or cells: T7 phage in E. coli BL21-derived host; remaining kinases in HEK-293 cells
T17 sequence (Q9BXA7 whole entry): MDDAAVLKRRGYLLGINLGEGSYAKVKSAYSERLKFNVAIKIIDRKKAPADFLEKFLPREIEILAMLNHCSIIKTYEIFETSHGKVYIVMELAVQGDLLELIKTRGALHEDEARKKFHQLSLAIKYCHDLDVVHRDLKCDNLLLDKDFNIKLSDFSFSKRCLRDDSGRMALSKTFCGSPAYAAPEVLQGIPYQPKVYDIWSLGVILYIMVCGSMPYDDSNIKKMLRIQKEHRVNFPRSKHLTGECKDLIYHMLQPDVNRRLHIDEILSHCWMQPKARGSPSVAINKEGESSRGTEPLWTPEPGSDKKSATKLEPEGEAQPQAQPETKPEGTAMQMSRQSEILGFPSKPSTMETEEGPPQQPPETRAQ

[18] = target: T18, 97 kinases (Homo sapiens, UniProt Q9H4B4); details: read-out: %Ctrl PLK3
T18 construct: purchased Ambit Biosciences (scanEDGE / KINOMEscan) scanEDGE 97 kinase panel; host or cells: T7 phage in E. coli BL21-derived host; remaining kinases in HEK-293 cells

[19] = target: T19, 97 kinases (Homo sapiens, UniProt Q02156); details: read-out: %Ctrl PRKCE
T19 construct: purchased Ambit Biosciences (scanEDGE / KINOMEscan) scanEDGE 97 kinase panel; host or cells: T7 phage in E. coli BL21-derived host; remaining kinases in HEK-293 cells

[20] = target: T20, 97 kinases (Homo sapiens, UniProt Q8IYT8); details: read-out: %Ctrl ULK2
T20 construct: purchased Ambit Biosciences (scanEDGE / KINOMEscan) scanEDGE 97 kinase panel; host or cells: T7 phage in E. coli BL21-derived host; remaining kinases in HEK-293 cells

[21] = target: T21, 97 kinases (Homo sapiens, UniProt Q9BWU1); details: read-out: %Ctrl CDK11
T21 construct: purchased Ambit Biosciences (scanEDGE / KINOMEscan) scanEDGE 97 kinase panel; host or cells: T7 phage in E. coli BL21-derived host; remaining kinases in HEK-293 cells

[22] = target: T22, 97 kinases (Homo sapiens, UniProt P53779); details: read-out: %Ctrl JNK3
T22 construct: purchased Ambit Biosciences (scanEDGE / KINOMEscan) scanEDGE 97 kinase panel; host or cells: T7 phage in E. coli BL21-derived host; remaining kinases in HEK-293 cells

[23] = target: T23, 97 kinases (Homo sapiens, UniProt P29597); details: read-out: %Ctrl TYK2(JH1domain-catalytic)
T23 construct: purchased Ambit Biosciences (scanEDGE / KINOMEscan) scanEDGE 97 kinase panel; host or cells: T7 phage in E. coli BL21-derived host; remaining kinases in HEK-293 cells

[24] = target: T24, 97 kinases (Homo sapiens, UniProt P07333); details: read-out: %Ctrl CSF1R
T24 construct: purchased Ambit Biosciences (scanEDGE / KINOMEscan) scanEDGE 97 kinase panel; host or cells: T7 phage in E. coli BL21-derived host; remaining kinases in HEK-293 cells

[25] = target: T25, 97 kinases (Homo sapiens, UniProt Q9P1W9); details: read-out: %Ctrl PIM2
T25 construct: purchased Ambit Biosciences (scanEDGE / KINOMEscan) scanEDGE 97 kinase panel; host or cells: T7 phage in E. coli BL21-derived host; remaining kinases in HEK-293 cells

[26] = target: T26, 97 kinases (Homo sapiens, UniProt Q9UPE1); details: read-out: %Ctrl SRPK3
T26 construct: purchased Ambit Biosciences (scanEDGE / KINOMEscan) scanEDGE 97 kinase panel; host or cells: T7 phage in E. coli BL21-derived host; remaining kinases in HEK-293 cells
T26 sequence (Q9UPE1 whole entry): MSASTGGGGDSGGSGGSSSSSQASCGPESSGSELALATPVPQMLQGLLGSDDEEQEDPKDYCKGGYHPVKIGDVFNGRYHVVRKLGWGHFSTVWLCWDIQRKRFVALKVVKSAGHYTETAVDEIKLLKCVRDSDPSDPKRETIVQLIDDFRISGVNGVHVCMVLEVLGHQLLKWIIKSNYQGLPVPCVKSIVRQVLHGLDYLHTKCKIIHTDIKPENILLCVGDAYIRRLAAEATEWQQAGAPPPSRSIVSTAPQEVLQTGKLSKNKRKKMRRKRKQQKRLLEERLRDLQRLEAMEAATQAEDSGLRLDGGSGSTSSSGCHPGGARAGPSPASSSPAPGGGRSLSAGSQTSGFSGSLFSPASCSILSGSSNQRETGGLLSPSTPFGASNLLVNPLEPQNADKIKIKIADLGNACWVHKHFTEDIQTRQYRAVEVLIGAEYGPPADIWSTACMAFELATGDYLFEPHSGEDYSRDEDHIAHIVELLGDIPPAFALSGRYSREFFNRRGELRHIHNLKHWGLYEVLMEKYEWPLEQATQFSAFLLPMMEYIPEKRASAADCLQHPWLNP

[27] = target: T27, 97 kinases (Homo sapiens, UniProt P06213); details: read-out: %Ctrl INSR
T27 construct: purchased Ambit Biosciences (scanEDGE / KINOMEscan) scanEDGE 97 kinase panel; host or cells: T7 phage in E. coli BL21-derived host; remaining kinases in HEK-293 cells

[28] = target: T28, 97 kinases (Homo sapiens, UniProt P22607); details: read-out: %Ctrl FGFR3
T28 construct: purchased Ambit Biosciences (scanEDGE / KINOMEscan) scanEDGE 97 kinase panel; host or cells: T7 phage in E. coli BL21-derived host; remaining kinases in HEK-293 cells

[29] = target: T29, 97 kinases (Homo sapiens, UniProt P08581); details: read-out: %Ctrl MET
T29 construct: purchased Ambit Biosciences (scanEDGE / KINOMEscan) scanEDGE 97 kinase panel; host or cells: T7 phage in E. coli BL21-derived host; remaining kinases in HEK-293 cells

[30] = target: T30, 97 kinases (Homo sapiens, UniProt O15530); details: read-out: %Ctrl PDPK1
T30 construct: purchased Ambit Biosciences (scanEDGE / KINOMEscan) scanEDGE 97 kinase panel; host or cells: T7 phage in E. coli BL21-derived host; remaining kinases in HEK-293 cells
T30 sequence (O15530 whole entry): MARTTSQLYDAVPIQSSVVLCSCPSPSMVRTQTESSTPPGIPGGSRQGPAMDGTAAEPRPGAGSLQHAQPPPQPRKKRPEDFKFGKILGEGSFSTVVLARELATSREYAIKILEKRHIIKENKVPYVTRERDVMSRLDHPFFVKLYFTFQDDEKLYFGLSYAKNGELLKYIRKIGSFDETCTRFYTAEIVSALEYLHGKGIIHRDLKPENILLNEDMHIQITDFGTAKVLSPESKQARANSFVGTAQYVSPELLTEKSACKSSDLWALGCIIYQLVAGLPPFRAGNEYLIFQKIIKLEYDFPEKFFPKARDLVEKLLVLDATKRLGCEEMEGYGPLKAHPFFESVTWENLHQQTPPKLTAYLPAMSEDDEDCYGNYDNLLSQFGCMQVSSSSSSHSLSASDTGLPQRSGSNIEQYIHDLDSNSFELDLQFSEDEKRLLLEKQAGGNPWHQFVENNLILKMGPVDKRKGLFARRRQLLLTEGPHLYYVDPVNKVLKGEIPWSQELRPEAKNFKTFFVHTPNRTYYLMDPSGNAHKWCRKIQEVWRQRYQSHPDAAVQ

[31] = target: T31, 97 kinases (Homo sapiens, UniProt O00444); details: read-out: %Ctrl PLK4
T31 construct: purchased Ambit Biosciences (scanEDGE / KINOMEscan) scanEDGE 97 kinase panel; host or cells: T7 phage in E. coli BL21-derived host; remaining kinases in HEK-293 cells
T31 sequence (O00444 whole entry): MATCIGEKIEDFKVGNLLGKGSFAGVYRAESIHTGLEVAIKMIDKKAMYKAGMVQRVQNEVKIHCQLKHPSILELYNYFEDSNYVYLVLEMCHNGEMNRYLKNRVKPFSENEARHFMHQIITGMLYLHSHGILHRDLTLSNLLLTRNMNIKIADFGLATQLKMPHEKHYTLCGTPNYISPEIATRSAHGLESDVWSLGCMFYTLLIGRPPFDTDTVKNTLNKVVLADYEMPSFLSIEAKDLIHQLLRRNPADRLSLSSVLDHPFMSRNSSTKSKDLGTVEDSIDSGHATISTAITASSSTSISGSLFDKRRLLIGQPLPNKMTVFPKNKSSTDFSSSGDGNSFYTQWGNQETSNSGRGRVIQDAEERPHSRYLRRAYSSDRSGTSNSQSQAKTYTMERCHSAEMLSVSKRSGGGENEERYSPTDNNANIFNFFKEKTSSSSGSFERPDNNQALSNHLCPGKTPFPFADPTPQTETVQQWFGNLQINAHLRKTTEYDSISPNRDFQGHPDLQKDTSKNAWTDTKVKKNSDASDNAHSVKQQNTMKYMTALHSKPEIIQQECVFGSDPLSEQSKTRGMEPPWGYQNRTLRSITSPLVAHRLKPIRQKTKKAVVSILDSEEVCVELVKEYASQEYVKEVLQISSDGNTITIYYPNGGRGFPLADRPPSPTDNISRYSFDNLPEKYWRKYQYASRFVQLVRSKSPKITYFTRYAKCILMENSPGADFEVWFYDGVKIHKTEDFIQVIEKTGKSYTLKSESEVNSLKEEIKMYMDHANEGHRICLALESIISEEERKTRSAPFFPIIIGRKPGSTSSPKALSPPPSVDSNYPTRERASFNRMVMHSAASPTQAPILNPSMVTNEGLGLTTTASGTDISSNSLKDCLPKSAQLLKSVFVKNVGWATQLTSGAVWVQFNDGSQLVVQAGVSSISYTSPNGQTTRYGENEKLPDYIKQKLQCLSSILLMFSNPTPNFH

[32] = target: T32, 97 kinases (Homo sapiens, UniProt O00750); details: read-out: %Ctrl PIK3C2B
T32 construct: purchased Ambit Biosciences (scanEDGE / KINOMEscan) scanEDGE 97 kinase panel; host or cells: T7 phage in E. coli BL21-derived host; remaining kinases in HEK-293 cells

[33] = target: T33, 97 kinases (Homo sapiens, UniProt P36896); details: read-out: %Ctrl ACVR1B
T33 construct: purchased Ambit Biosciences (scanEDGE / KINOMEscan) scanEDGE 97 kinase panel; host or cells: T7 phage in E. coli BL21-derived host; remaining kinases in HEK-293 cells

[34] = target: T34, 97 kinases (Homo sapiens, UniProt Q9Y6R4); details: read-out: %Ctrl MAP3K4
T34 construct: purchased Ambit Biosciences (scanEDGE / KINOMEscan) scanEDGE 97 kinase panel; host or cells: T7 phage in E. coli BL21-derived host; remaining kinases in HEK-293 cells

[35] = target: T35, 97 kinases (Homo sapiens, UniProt P42336); details: read-out: %Ctrl PIK3CA
T35 construct: purchased Ambit Biosciences (scanEDGE / KINOMEscan) scanEDGE 97 kinase panel; host or cells: T7 phage in E. coli BL21-derived host; remaining kinases in HEK-293 cells

[36] = target: T36, 97 kinases (Homo sapiens, UniProt P04629); details: read-out: %Ctrl TRKA
T36 construct: purchased Ambit Biosciences (scanEDGE / KINOMEscan) scanEDGE 97 kinase panel; host or cells: T7 phage in E. coli BL21-derived host; remaining kinases in HEK-293 cells
T36 sequence (P04629 33-796): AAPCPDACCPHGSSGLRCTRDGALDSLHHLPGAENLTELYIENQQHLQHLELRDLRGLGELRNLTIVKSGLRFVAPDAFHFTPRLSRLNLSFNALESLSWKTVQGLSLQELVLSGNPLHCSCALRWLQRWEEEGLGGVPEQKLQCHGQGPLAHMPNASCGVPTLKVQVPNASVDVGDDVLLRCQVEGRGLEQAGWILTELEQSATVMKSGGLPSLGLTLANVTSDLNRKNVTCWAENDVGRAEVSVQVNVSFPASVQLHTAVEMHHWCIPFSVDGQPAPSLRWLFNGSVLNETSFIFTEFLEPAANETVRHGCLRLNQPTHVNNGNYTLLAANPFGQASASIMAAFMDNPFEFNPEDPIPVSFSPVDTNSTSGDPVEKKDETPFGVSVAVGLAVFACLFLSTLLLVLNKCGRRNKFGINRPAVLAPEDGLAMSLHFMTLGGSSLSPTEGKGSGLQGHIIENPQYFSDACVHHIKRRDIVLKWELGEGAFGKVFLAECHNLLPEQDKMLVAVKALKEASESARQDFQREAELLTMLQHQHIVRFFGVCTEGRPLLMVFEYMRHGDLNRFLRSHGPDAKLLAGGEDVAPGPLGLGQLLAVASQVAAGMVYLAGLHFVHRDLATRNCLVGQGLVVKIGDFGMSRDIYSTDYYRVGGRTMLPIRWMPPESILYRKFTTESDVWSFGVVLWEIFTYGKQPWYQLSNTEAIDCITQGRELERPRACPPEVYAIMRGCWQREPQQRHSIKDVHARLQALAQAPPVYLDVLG

[37] = target: T37, 97 kinases (Homo sapiens, UniProt P45983); details: read-out: %Ctrl JNK1
T37 construct: purchased Ambit Biosciences (scanEDGE / KINOMEscan) scanEDGE 97 kinase panel; host or cells: T7 phage in E. coli BL21-derived host; remaining kinases in HEK-293 cells
T37 sequence (P45983 whole entry): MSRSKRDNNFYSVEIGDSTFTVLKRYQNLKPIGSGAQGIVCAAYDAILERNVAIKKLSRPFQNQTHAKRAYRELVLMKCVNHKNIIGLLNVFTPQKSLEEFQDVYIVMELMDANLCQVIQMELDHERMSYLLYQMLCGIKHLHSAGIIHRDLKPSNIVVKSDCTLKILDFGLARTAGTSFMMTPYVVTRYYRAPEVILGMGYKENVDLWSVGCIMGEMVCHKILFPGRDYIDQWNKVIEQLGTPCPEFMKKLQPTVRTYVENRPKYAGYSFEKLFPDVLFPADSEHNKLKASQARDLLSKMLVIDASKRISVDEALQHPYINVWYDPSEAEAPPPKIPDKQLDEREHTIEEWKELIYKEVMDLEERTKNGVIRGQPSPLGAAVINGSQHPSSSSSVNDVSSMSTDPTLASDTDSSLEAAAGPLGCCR

[38] = target: T38, 97 kinases (Homo sapiens, UniProt P36897); details: read-out: %Ctrl TGFBR1
T38 construct: purchased Ambit Biosciences (scanEDGE / KINOMEscan) scanEDGE 97 kinase panel; host or cells: T7 phage in E. coli BL21-derived host; remaining kinases in HEK-293 cells

Structure (SMILES): CC(C)(C)CNCCn1c(Sc2cc3c(cc2I)OCO3)nc2c(N)ncnc21 [Compound 85]
- remaining binding at 10 µM [1]: 100%
- remaining binding at 10 µM [2]: 73%
- remaining binding at 10 µM [3]: 100%
- remaining binding at 10 µM [4]: 91%
- remaining binding at 10 µM [5]: 100%
- remaining binding at 10 µM [6]: 89%
- remaining binding at 10 µM [7]: 100%
- remaining binding at 10 µM [8]: 93%
- remaining binding at 10 µM [9]: 79%
- remaining binding at 10 µM [10]: 100%
- remaining binding at 10 µM [11]: 99%
- remaining binding at 10 µM [12]: 97%
- remaining binding at 10 µM [13]: 100%
- remaining binding at 10 µM [14]: 97%
- remaining binding at 10 µM [15]: 96%
- remaining binding at 10 µM [16]: 98%
- remaining binding at 10 µM [17]: 51%
- remaining binding at 10 µM [18]: 88%
- remaining binding at 10 µM [19]: 100%
- remaining binding at 10 µM [20]: 94%
- remaining binding at 10 µM [21]: 90%
- remaining binding at 10 µM [22]: 100%
- remaining binding at 10 µM [23]: 99%
- remaining binding at 10 µM [24]: 94%
- remaining binding at 10 µM [25]: 81%
- remaining binding at 10 µM [26]: 100%
- remaining binding at 10 µM [27]: 92%
- remaining binding at 10 µM [28]: 95%
- remaining binding at 10 µM [29]: 100%
- remaining binding at 10 µM [30]: 77%
- remaining binding at 10 µM [31]: 89%
- remaining binding at 10 µM [32]: 96%
- remaining binding at 10 µM [33]: 83%
- remaining binding at 10 µM [34]: 49%
- remaining binding at 10 µM [35]: 87%
- remaining binding at 10 µM [36]: 95%
- remaining binding at 10 µM [37]: 96%
- remaining binding at 10 µM [38]: 63%
